Assay [1] in a line: Binding affinity to MOR Y210A mutant (unknown origin) expressed in CHO cells after 15 mins by Ca2+ mobilization assay. Format: cell-based, Homo sapiens. (In general: A change in cytosolic calcium serves as a functional read-out for many receptors and channels.)
For assay [2], the target named is T1, Mu-type opioid receptor (Homo sapiens, UniProt P35372).
The target in assay [3] is T1, Mu-type opioid receptor. Description: Binding affinity to wild type MOR (unknown origin) expressed in CHO cells after 15 mins by Ca2+ mobilization assay. Format: cell-based.

For one molecule, IC50 and Ki results are on record in ChEMBL document CHEMBL2440098, “Binding mode characterization of 6α- and 6β-N-heterocyclic substituted naltrexamine derivatives via docking in opioid receptor crystal structures and site-directed mutagenesis studies: application of the 'message-address' concept in development of mu opioid receptor selective antagonists” (Bioorg Med Chem, 2013).

T1 sequence (P35372 whole entry): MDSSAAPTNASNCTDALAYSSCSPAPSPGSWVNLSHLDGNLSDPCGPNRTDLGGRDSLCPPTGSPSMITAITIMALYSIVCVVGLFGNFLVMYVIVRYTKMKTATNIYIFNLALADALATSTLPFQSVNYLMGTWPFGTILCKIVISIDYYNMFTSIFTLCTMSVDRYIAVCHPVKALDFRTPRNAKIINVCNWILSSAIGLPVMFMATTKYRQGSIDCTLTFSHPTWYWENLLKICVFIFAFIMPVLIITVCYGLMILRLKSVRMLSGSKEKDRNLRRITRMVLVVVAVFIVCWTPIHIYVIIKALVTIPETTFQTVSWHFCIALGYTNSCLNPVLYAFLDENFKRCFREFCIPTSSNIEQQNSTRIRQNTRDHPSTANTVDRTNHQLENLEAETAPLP

`O=C(N[C@H]1CC[C@@]2(O)[C@H]3Cc4ccc(O)c5c4[C@@]2(CCN3CC2CC2)[C@H]1O5)c1cc2ccccc2cn1`: the IC50 – broadly, the midpoint of a concentration-inhibition curve – in assay [1] amounted to 3.31 nM; against Mu-type opioid receptor [2], 150 nM. Also, the Ki (in general, the dissociation constant of the complex between target and ligand, obtained from inhibition or displacement) in assay [1] stood at 1.57 nM; at Mu-type opioid receptor [3] it was 2.57 nM.
